Patent publication US10011597B2 (APOGLYX AB, priority 2014, dated 2018)

Target: T1, human aquaporin 9 (Homo sapiens, UniProt O43315)
T1 construct: expressed in transfected cells; host or cells: Human AQP9 cell line with tetracycline added to the medium
T1 sequence (O43315 1-295): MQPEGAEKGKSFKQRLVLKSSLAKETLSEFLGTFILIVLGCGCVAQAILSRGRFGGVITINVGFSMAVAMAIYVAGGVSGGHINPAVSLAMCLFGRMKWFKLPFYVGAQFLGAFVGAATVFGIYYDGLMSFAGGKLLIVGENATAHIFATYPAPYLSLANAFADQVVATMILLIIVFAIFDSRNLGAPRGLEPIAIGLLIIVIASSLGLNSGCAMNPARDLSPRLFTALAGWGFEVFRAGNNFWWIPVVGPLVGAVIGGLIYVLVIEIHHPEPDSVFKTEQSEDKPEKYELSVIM
Assay: Calcein quenching fluostar assay
Format: cell-based
Settings: inhibition of human aquaporin 9; Human AQP9 cell line, tetracyclin-induced; 25° C.
Method: Calcein Quenching Fluostar Assay
A calcein quenching fluostar assay was performed in order to investigate the biological activity of the newly synthesized examples 1 to 57. This type of assay is disclosed in J. Biol. Chem., 2011, 286, 44319-44325 and Am. J. Physiol. Renal Physiol. (2010), 298, F224-230.
1) Two days prior to commencement of the assay, seed 10,000 cells/well of 96 well black clear bottom plate (Greiner Poly-lysin plate). A 1:1 mix of Dulbecco's Modified Eagle's Medium:Nutrient Mixture F-12 (DMEM: F12) was obtained from Gibco. Tetracycline stock of 5 mg/ml in 96% ethanol is used. Medium:DMEM/F12/10% Donor Bovine Serum, Human AQP9 cell line+1:270,000 tetracyclin, mouse AQP9 cell line+1:2,700,000 tetracycline.
2) Day of assay: Flick/slam off the medium and add 50 μl/well of loading solution: 5 ml DMEM/F12/10% Donor Bovine Serum, 25 μl Calcein AM—from freshly dissolved aliquot in 50 μl DMSO (VWR #734-1434), and 100 μl Probenecid.
3) Incubate the well for 90 minutes at 37° C.
4) Perform one wash with 75 μl wash buffer.
5) Add 75 μl of an example compound prepared in wash buffer per well.
Example compounds are prepared in 500 μl U bottom PP plates (NUNC). […] Substance in DMSO are added to row A; 180 μl of wash buffer+1% DMSO are added to rows B-H. 90 μl from row A are transferred and mixed with all other wells (up to row G) to make a 3-fold dilution series.
6) Assay in FLUOstar Optima at 25° C. Settings buffer addition at 135 μl seconds, add 75 μl/well, record time course for 30 seconds, add sucrose buffer 3.6 seconds into recording.
7) Normalization to initial in Excel.
8) Fit to “exponential decay” function in GraphPad Prism 5.0, then arrange half live shrinking values according to wells and fit dose-response curves.

Row | IC50 | SMILES
1 | 375 nM | CCn1c(SCC(=O)Nc2nnc(-c3ccc(F)cc3)s2)nnc1-c1cccc(OC)c1 [Example 25, 2-{[4-Ethyl-5-(3-methoxyphenyl)-4H-1,2,4-triazol-3-yl]sulfanyl}-N-[5-(4-fluorohenyl)-1,3,4-thiadiazol-2-yl]acetamide]
2 | 134 nM | CCn1c(SCC(=O)Nc2nnc(-c3ccc(S(C)(=O)=O)cc3)s2)nnc1-c1ccc(F)cc1 [Example 53, 2-{[4-ethyl-5-(4-fluorophenyl)-4H-1,2,4-triazol-3-yl]sulfanyl}-N-[5-(4-methanesulfonylphenyl)-1,3,4-thiadiazol-2-yl]acetamide]
3 | 117 nM | COC(=O)CCn1c(SCC(=O)Nc2nnc(-c3ccc(OC)cc3)s2)nnc1-c1ccccc1 [Example 48, Methyl 3-{3-[({[5-(4-methoxyphenyl)-1,3,4-thiadiazol-2-yl]carbamoyl}methyl)sulfanyl]-5-phenyl-4H-1,2,4-triazol-4-yl}propanoate]
4 | 1290 nM | Cn1c(SCC(=O)Nc2nnc(-c3cccc(F)c3)s2)nnc1-c1ccc(F)cc1 [Example 3, N-[5-(3-fluorophenyl)-1,3,4-thiadizole-2-yl]-2-{[5-(4-fluorophenyl)-4-methyl-4H-1,2,4-triazole-3-yl]sulfanyl}acetamide]
5 | 676 nM | CCn1c(SCC(=O)Nc2nnc(-c3ccc(SC)cc3)s2)nnc1-c1ccc(F)cc1 [Example 55, 2-{[4-ethyl-5-(4-fluorophenyl)-4H-1,2,4-triazol-3-yl]sulfanyl}-N-{5-[4-(methylsulfanyl)phenyl]-1,3,4-thiadiazol-2-yl}acetamid]
6 | 112 nM | Cn1c(SCC(=O)Nc2nnc(-c3ccc(F)cc3)s2)nnc1-c1ccncc1 [Example 9, N-[5-(4-fluorophenyl)-1,3,4-thiadiazol-2-yl]-2-{[4-methyl-5-(pyridin-4-yl)-4H-1,2,4-triazol-3-yl]sulfanyl}acetamide]
7 | 168 nM | O=C(CSc1nnc(-c2ccc(F)cc2)n1C1CC1)Nc1nnc(-c2ccc(F)cc2)s1 [Example 44, 2-{[4-cyclopropyl-5-(4-fluorophenyl)-4H-1,2,4-triazol-3-yl]sulfanyl}-N-[5-(4-fluorophenyl)-1,3,4-thiadiazol-2-yl]acetamide]
8 | 129 nM | CCn1c(SCC(=O)Nc2nnc(-c3ccc(OS(C)(=O)=O)cc3)s2)nnc1-c1ccc(F)cc1 [Example 36, 4-[5-(2-{[4-Ethyl-5-(4-fluorophenyl)-4H-1,2,4-triazol-3-yl]sulfanyl}acetamido)-1,3,4-thiadiazol-2-yl]phenyl methanesulfonate]
9 | 86 nM | COc1ccc(-c2nnc(NC(=O)CSc3nnc(-c4ccccc4)n3CCCO)s2)cc1 [Example 51, 2-{[4-(3-hydroxypropyl)-5-phenyl-4H-1,2,4-triazol-3-yl]sulfanyl}-N-[5-(4-methoxyphenyl)-1,3,4-thiadiazol-2-yl]acetamide]
10 | 114 nM | CCn1c(SCC(=O)Nc2nnc(-c3ccc(C#N)cc3)s2)nnc1-c1ccc(F)cc1 [Example 47, N-[5-(4-cyanophenyl)-1,3,4-thiadiazol-2-yl]-2-{[4-ethyl-5-(4-fluorophenyl)-4H-1,2,4-triazol-3-yl]sulfanyl}acetamide]
11 | 4830 nM | CCn1c(SCC(=O)Nc2nnc(-c3cccc(OC)c3)s2)nnc1-c1ccc(F)cc1 [Example 5, 2-{[4-ethyl-5-(4-fluorophenyl)-4H-1,2,4-triazol-3-yl]sulfanyl}-N-[5-(3-methoxyphenyl)-1,3,4-thiadiazol-2-yl]acetamide]
12 | 110 nM | CCn1c(SCC(=O)Nc2nnc(-c3ccc(F)cc3)s2)nnc1-c1cccnc1 [Example 30, 2-{[4-Ethyl-5-(pyridin-3-yl)-4H-1,2,4-triazol-3-yl]sulfanyl}-N-[5-(4-fluorophenyl)-1,3,4-thiadiazol-2-yl]acetamide]
13 | 253 nM | COc1ccc(-c2nnc(NC(=O)CSc3nnc(-c4ccc(F)cc4)n3C)s2)cc1 [Example 6, 2-{[5-(4-Fluorophenyl)-4-methyl-4H-1,2,4-triazole-3-yl]sulfanyl}-N-[5-(4-methoxyphenyl)-1,3,4-thiadizole-2-yl]-acetamide]
14 | 82 nM | CCn1c(SCC(=O)Nc2nnc(-c3ccc(OCCOC)cc3)s2)nnc1-c1ccc(F)cc1 [Example 37, 2-{[4-ethyl-5-(4-fluorophenyl)-4H-1,2,4-triazol-3-yl]sulfanyl}-N-{5-[4-(2-methoxyethoxy)phenyl]-1,3,4-thiadiazol-2-yl}acetamide]
15 | 427 nM | CCn1c(SCC(=O)Nc2nnc(-c3ccc(F)cc3)s2)nnc1-c1ccccn1 [Example 29, 2-{[4-Ethyl-5-(pyridin-2-yl)-4H-1,2,4-triazol-3-yl]sulfanyl}-N-[5-(4-fluorophenyl)-1,3,4-thiadiazol-2-yl]acetamide]
16 | 190 nM | CCn1c(SCC(=O)Nc2nnc(-c3ccccc3F)s2)nnc1-c1ccc(F)cc1 [Example 38, 2-{[4-ethyl-5-(4-fluorophenyl)-4H-1,2,4-triazol-3-yl]sulfanyl}-N-[5-(2-fluorophenyl)-1,3,4-thiadiazol-2-yl]acetamide]
17 | 477 nM | CCn1c(SCC(=O)Nc2nnc(-c3ccc(F)cc3)s2)nnc1-c1ccc(OC)cc1 [Example 26, 2-{[4-Ethyl-5-(4-methoxyphenyl)-4H-1,2,4-triazol-3-yl]sulfanyl}-N-[5-(4-fluorophenyl)-1,3,4-thiadiazol-2-yl]acetamide]
18 | 373 nM | COc1ccc(-c2nnc(NC(=O)CSc3nnc(-c4ccccc4)n3CCN)s2)cc1 [Example 49, 2-{[4-(2-aminoethyl)-5-phenyl-4H-1,2,4-triazol-3-yl]sulfanyl}-N-[5-(4-methoxyphenyl) 1,3,4 thiadiazol-2-yl]acetamide]
19 | 200 nM | CCn1c(SCC(=O)Nc2nnc(-c3ccc(F)cc3)s2)nnc1-c1cccc(F)c1 [Example 28]
20 | 323 nM | CCn1c(SCC(=O)Nc2nnc(-c3ccc(OC)cc3)s2)nnc1-c1ccccc1C [Example 13, 2-{[4-Ethyl-5-(2-methylphenyl)-4H-1,2,4-triazol-3-yl]sulfanyl}-N-[5-(4-methoxyphenyl)-1,3,4-thiadiazol-2-yl]acetamide]
21 | 200 nM | COc1ccc(-c2nnc(NC(=O)CSc3nnc(-c4ccccc4)n3CC(N)=O)s2)cc1 [Example 50, 2-{[4-(carbamoylmethyl)-5-phenyl-4H-1,2,4-triazol-3-yl]sulfanyl}-N-[5-(4methoxyphenyl)-1,3,4-thiadiazol-2-yl]acetamide]
22 | 262 nM | CCn1c(SCC(=O)Nc2nnc(-c3ccc(OC)cc3)s2)nnc1-c1ccc(C)cc1 [Example 15, 2-{[4-Ethyl-5-(4-methylphenyl)-4H-1,2,4-triazol-3-yl]sulfanyl}-N-[5-(4-methoxyphenyl)-1,3,4-thiadiazol-2-yl]acetamide]
23 | 193 nM | Cn1c(SCC(=O)Nc2nnc(-c3ccccc3F)s2)nnc1-c1ccncc1 [Example 2, N-[5-(2-fluorophenyl)-1,3,4-thiadiazol-2-yl]-2-{[4-methyl-5-(pyridin-4-yl)-4H-1,2,4-triazol-3-yl]sulfanyl}acetamide]
24 | 40 nM | CCn1c(SCC(=O)Nc2nnc(-c3ccc(OC)cc3)s2)nnc1-c1ccc(F)cc1 [Example 11, 2-{[4-Ethyl-5-(4-fluorophenyl)-4H-1,2,4-triazol-3-yl]sulfanyl}-N-[5-(4-methoxyphenyl)-1,3,4-thiadiazol-2-yl]acetamide]
25 | 139 nM | CCn1c(SCC(=O)Nc2nnc(-c3ccc(OC)cc3)s2)nnc1-c1ccccc1F [Example 17, 2-{[4-Ethyl-5-(2-fluorophenyl)-4H-1,2,4-triazol-3-yl]sulfanyl}-N-[5-(4-methoxyphenyl)-1,3,4-thiadiazol-2-yl]acetamide]
26 | 393 nM | Cn1c(SCC(=O)Nc2nnc(-c3ccc(F)cc3)s2)nnc1-c1ccc(F)cc1 [Example 1, N-[5-(4-fluorophenyl)-1,3,4-thiadizole-2-yl]-2-{[5-(4-fluorophenyl)-4-methyl-4H-1,2,4-triazole-3-yl]sulfanyl}acetamide]
27 | 4740 nM | COc1ccccc1-c1nnc(NC(=O)CSc2nnc(-c3ccc(F)cc3)n2C)s1 [Example 4, 2-{[5-(4-Fluorophenyl)-4-methyl-4H-1,2,4-triazole-3-yl]sulfanyl}-N-[5-(2-methoxyphenyl)-1,3,4-thiadizole-2-yl]-acetamide]
28 | 160 nM | CCn1c(SCC(=O)Nc2nnc(-c3ccc(OC)cc3)s2)nnc1-c1cccc(OC)c1 [Example 22, 2-{[4-Ethyl-5-(3-methoxyphenyl)-4H-1,2,4-triazol-3-yl]sulfanyl}-N-[5-(4-methoxyphenyl)-1,3,4-thiadiazol-2-yl]acetamide]
